Results published in US9610274B2, “Methods for treating bipolar disorder” (priority 2010, dated 2017).
pIC50: −log10 of the molar value. Entries after “also recorded” stand apart in the source; their conditions may differ. Where two headings read alike, the source gives them in different places.

How the values were obtained:
[1] = molecular target: T1, hDAT (human dopamine transporter) (Homo sapiens, UniProt Q01959); experiment: Inhibition of [125I]RTI-55 binding to hDAT in HEK293 cell membranes; conditions: HEK-hDAT cells; mean ± SEM
T1 construct: expressed in transfected cells; host or cells: HEK293 (ATCC), puromycin-selected clonal cells

[2] = system: isolated mice; experiment: Isolation-induced fighting in mice; type: in vivo; conditions: Mus musculus
Procedure: Male CD-1 mice (15-20 g) were utilized in this experiment. The test compound (15, 22 and 30 mg/kg) was dissolved in physiological saline (0.9%) and administered orally (PO) in a volume of 1 mL/100 g body weight.
Mice were isolated for up to 8 weeks in individual solid walled wire cages (24×20×17 cm). The animals were not disturbed except to replenish food. Aggression was tested by placing an intruder mouse into the home cage of the resident animal. Aggression was characterized by an attack on the “intruder” during a three minute period. […] Only those resident mice displaying fighting behavior were selected. […] ED50 values were calculated from the percent inhibition of fighting in computer program based on probit analysis.

[3] = system: rats; experiment: Forced swimming test in rats; type: in vivo; conditions: 4 hours post-treatment
Procedure: Male CD-1 mice (16-24 g) and male Wistar rats (90-125 g) were utilized in these experiments. The test compound (10, 15 and 30 mg/kg) was dissolved in physiological saline (0.9%) and administered orally in a volume of 1 mL/100 g body weight.
Mice and rats were placed in glass cylinders of 1000 ml beakers (height 14 cm, diameter 11.5 cm) and 4000 ml beakers (height 24.5 cm, diameter 18.0 cm), respectively, containing water (25 degrees Celsius) up to a height of 9.0 cm for mice and 19.0 cm for rats. […] Immobility was defined as lack of movement, such as floating in the water with little or no movement of hind legs. Duration of immobility was timed with a stopwatch and recorded. In some experiments, mice or rats were allowed to swim for 6 or 10 minutes, respectively, one day prior to the forced swimming experiment.
In the single dose test, mice or rats were given test compound or 0.9% NaCl and placed in glass cylinders 1 hour or 4 hours post-treatment, respectively. In the multiple dose experiments, mice were dosed twice a day for 3 days and given an additional dose on Day 4. In addition, the mice were placed in the glass cylinders containing water at 25 degrees Celsius and allowed to swim for six minutes on Day 3. Statistical evaluation was performed using a computer program (The Pharmacological Calculation System of Tallarida and Murray (#425475-04-7-1992)) based on probit analysis. Statistical significance was determined using Student's t-test at a P value of <0.05.

[4] = molecular target: T2, hNET (human norepinephrine transporter) (Homo sapiens, UniProt P23975); type: binding; conditions: HEK-hNET cells; mean ± SEM
T2 construct: expressed in transfected cells; host or cells: HEK293 (ATCC), geneticin-selected clonal cells

[5] = system: homozygous mutant dopamine transporter knockout (KO) mice; experiment: Spontaneous activity in the open field, dopamine transporter KO mice; type: in vivo
Procedure: Male and female wild-type and homozygous mutant dopamine transporter KO mice (n˜10 mice/genotype/agent; produced by in vivo homologous recombination and bred at Duke University Medical Center, Durham, N.C.) were tested for spontaneous activity in the open field following a single injection of the vehicle or compound. […] All drugs were given in a volume of 5 mL/kg. Animals were returned to the open field for an additional 90 min. Spontaneous activity was evaluated in an automated Omnitech Digiscan apparatus (Accuscan Instruments, Columbus, Ohio). Activity was summated at 5 min intervals over the 2 h period of testing. Horizontal activity or locomotion was measured in terms of the total distance covered in cm, vertical activity or rearing was expressed in terms of the total numbers of vertical beam breaks, and stereotypy was quantified in terms of repetitive breaks of a given beam or beams with intervals of less than 1 sec. For the analyses, 10 WT and 10 KO mice were run in each of the treatment groups with approximately equal numbers of males and females assigned to each group. Data were analyzed by the Statistical Package for Social Sciences programs (version 11.0 for Windows; SPSS Science, Chicago, Ill.). The results for each dependent variable were analyzed by repeated analyses of variance (RMANOVA) for within subjects effects (group differences over time) and between-subjects effects (tests of main effects and interactions). Bonferroni corrected pair-wise comparisons were used as the post-hoc tests. A p <0.05 was considered significant.

[6] = molecular target: T3, hSERT (human serotonin transporter) (Homo sapiens, UniProt P31645); experiment: Inhibition of [3H]serotonin uptake in HEK-hSERT cells; type: cell-based
T3 construct: expressed in transfected cells; host or cells: HEK293 (ATCC), puromycin-selected clonal cells

[7] = molecular target: T3, hSERT (human serotonin transporter); experiment: Inhibition of [125I]RTI-55 binding to hSERT in HEK293 cell membranes; conditions: HEK-hSERT cells; mean ± SEM
[8] = system: mice; experiment: Forced swimming test in mice; type: in vivo; conditions: for ED50: Mus musculus

T3 sequence (P31645 whole entry): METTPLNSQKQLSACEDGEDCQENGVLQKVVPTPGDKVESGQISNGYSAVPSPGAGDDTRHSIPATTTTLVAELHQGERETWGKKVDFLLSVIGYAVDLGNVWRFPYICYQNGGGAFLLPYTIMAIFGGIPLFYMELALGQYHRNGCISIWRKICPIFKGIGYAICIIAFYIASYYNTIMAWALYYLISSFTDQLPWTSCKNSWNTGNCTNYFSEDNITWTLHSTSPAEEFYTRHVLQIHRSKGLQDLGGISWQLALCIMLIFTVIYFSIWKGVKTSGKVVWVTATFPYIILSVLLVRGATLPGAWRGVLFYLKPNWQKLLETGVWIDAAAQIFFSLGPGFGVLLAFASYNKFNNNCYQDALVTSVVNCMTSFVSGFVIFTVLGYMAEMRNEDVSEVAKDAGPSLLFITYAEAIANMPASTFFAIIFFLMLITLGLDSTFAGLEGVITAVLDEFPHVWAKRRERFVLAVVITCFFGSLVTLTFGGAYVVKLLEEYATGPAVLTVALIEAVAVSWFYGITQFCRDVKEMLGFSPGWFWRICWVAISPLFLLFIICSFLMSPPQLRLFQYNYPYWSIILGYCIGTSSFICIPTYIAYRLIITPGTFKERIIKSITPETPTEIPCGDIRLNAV
T1 sequence (Q01959 whole entry): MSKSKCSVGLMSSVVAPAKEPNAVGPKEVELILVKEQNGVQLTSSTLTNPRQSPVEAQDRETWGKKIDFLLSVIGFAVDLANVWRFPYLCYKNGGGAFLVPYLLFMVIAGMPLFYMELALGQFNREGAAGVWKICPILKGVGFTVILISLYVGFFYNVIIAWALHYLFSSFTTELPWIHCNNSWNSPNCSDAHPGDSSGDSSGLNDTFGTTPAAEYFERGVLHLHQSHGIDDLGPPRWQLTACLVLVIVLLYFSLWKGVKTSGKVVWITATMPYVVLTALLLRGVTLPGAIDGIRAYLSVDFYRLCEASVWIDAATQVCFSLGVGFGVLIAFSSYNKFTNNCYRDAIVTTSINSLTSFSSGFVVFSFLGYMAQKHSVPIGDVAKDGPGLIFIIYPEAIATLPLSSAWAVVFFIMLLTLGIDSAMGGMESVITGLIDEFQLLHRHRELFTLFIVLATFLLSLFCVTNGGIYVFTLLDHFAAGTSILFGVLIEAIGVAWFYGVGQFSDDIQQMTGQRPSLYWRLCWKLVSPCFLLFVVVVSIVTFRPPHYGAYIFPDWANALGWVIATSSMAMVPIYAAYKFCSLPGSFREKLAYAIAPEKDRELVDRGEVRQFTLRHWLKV
T2 sequence (P23975 whole entry): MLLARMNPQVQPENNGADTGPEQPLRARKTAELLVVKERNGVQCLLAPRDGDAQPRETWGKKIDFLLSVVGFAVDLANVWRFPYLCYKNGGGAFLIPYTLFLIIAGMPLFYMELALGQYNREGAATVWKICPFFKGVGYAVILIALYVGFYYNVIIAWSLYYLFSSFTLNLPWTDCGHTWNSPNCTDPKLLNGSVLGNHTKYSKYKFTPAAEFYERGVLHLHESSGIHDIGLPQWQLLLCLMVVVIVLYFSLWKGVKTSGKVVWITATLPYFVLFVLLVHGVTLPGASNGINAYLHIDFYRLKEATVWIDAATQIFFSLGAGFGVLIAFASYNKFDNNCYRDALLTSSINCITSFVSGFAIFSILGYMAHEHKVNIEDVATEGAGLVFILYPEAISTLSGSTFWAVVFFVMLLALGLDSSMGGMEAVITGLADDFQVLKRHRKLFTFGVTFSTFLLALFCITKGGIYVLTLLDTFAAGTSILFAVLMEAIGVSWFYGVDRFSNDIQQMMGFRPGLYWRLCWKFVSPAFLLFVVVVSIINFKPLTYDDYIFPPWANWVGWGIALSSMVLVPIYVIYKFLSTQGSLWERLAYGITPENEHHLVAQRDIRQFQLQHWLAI

Molecule NC(=O)OC[C@H](N)Cc1ccccc1 [test compound, O-carbamoyl-(D)-phenylalaninol] has a Hill coefficient [1] of −0.77 ± 0.12, an inhibition at 15 mg/kg ([2]; 1 h, 15 mg/kg PO, 60 min after dosing) of 28% and an inhibition at 22 mg/kg ([2]; 1 h, 22 mg/kg PO, 60 min after dosing) of 44%. For the same molecule, the inhibition at 30 mg/kg ([2]; 1 h, 30 mg/kg PO, 60 min after dosing) was 56%, the ED50 ([2]; PO, inhibition of isolation-induced fighting, probit analysis, read-out: ED50 (mg/kg, PO) (confidence limits)) was 25.9 mg/kg and the “mean duration of immobility” value ([3]; 10 mg/kg, control 74 sec, not statistically significant) was 62 s. The “mean duration of immobility” value ([3]; 15 mg/kg, control 65 sec, not statistically significant) was 39 s, the “mean duration of immobility” value ([3]; 30 mg/kg, control 38 sec, significant) was 9 s and the ED50 ([3]; Rattus norvegicus, single dose PO, read-out: ED50 (reduction of mean immobility time)) was 18.5 mg/kg. For the same molecule, the Hill coefficient [4] was −1.45 ± 0.34, the “spontaneous activity (locomotor, rearing and stereotypical activities)” value ([5]; single SC injection, test compound 10, 30, 100 mg/kg, amphetamine 2 mg/kg, 90 min post-injection, relative to vehicle) was “selectively reduced activity of the KO mice in a dose-dependent manner; also recorded: reduced activities in a dose-dependent fashion” and the “spontaneous activity compared with amphetamine” value ([5]; test compound 100 mg/kg SC versus amphetamine 2 mg/kg SC) was “suppressed activities more efficiently than amphetamine”. The pIC50 [6] was < 4.00, the Hill coefficient [7] was −2.28 ± 0.05 and the ED50 ([8]; multiple dosing PO (twice a day for 3 days plus a dose on Day 4), read-out: ED50 (reduction of mean immobility time)) was 5.5 mg/kg. For the same molecule, the ED50 ([8]; read-out: ED50 (50% reduction in mean immobility time), single dose PO, 1 hour post-treatment) was 16.6 mg/kg, the “mean duration of immobility” value ([8]; multiple dosing 3 mg/kg PO, control 85 sec) was 63 s and the “mean duration of immobility” value ([8]; multiple dosing 5 mg/kg PO, control 136 sec, significant) was 73 s. For the same molecule, the “mean duration of immobility” value ([8]; multiple dosing 8 mg/kg PO, control 114 sec, significant) was 39 s, the “mean duration of immobility” value ([8]; single dose 10 mg/kg PO, control 131 sec) was 101 s and the “mean duration of immobility” value ([8]; single dose 15 mg/kg PO, control 154 sec, significant) was 80 s. The “mean duration of immobility” value ([8]; single dose 30 mg/kg PO, control 132 sec, significant) was 30 s.
